Holding throughout (assay): NCI anticancer screen, dose series, 48 h
Experiment [1] has as its system SF-268 CNS.
In experiment [2] the test system is LOX IMVI melanoma.
Experiment [3] deals with TK-10 renal.
The test system of experiment [4] is HOP-62 NSCLC.
Experiment [5] deals with DU-145 prostate.
For experiment [6], the system named is HL-60(TB) leukemia.
Experiment [7] has as its system CAKI-1 renal.
The test system of experiment [8] is K-562 leukemia.
The test system of experiment [9] is HS 578T breast.
In experiment [10] the test system is A549 NSCLC.
In experiment [11] the test system is SF-295 CNS.
The test system of experiment [12] is NCI-H226 lung.
The subject of experiment [13] is COLO 205 colon.
The test system of experiment [14] is MOLT-4 leukemia.
Experiment [15] deals with NCI-H522 lung.
Experiment [16] relates to SR leukemia.
Experiment [17] deals with NCI-H23 lung.
The test system of experiment [18] is ACHN renal.
The subject of experiment [19] is HCT-116 colon.
Experiment [20] has as its system A498 renal.

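The compound was tested at five concentrations on cells cultured in 96-well plates, with a 48-hour exposure period. Definition used: TGI = concentration required for complete inhibition of growth.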 Where only a bound is given, the exact number is not on record here.

For `COC(=O)C1CCOC(C)N1C(=O)OC(C)(C)C` (centres undefined), the TGI in experiment [1], in [2], in experiment [3], in [4], in experiment [5] and in experiment [6] was more than 100 µM each time. The TGI in experiment [7], in experiment [8], in experiment [9], in experiment [10], in experiment [11] and in experiment [12] was more than 100 µM throughout. The TGI in experiment [13], in experiment [14], in experiment [15], in experiment [16], in experiment [17] and in experiment [18] was more than 100 µM each time. For the same molecule, in experiment [19], the TGI is more than 100 µM.

For `O=[N+]([O-])c1ccc(-c2nc3ccc([N+](=O)[O-])cc3[nH]2)cc1`, the TGI is more than 100 µM in experiment [1]; 67.8 µM in [2]; more than 100 µM in [3]; 97 µM in [4]; more than 100 µM in [5]; more than 100 µM in experiment [7]. The TGI in [9] is more than 100 µM; in experiment [10], 62.7 µM; in [11] it was 66.1 µM; in experiment [12] it was more than 100 µM; in [13], 28.2 µM; in experiment [14] it was more than 100 µM. Further, the TGI in experiment [15] was 88.4 µM; in experiment [16], more than 100 µM; in experiment [17] it was 65.3 µM; in experiment [18], more than 100 µM; in experiment [19], 38.3 µM.

Take `S=c1nc(Cc2ccc(Cl)cc2)[nH][nH]1`: the TGI in [2], in experiment [3], in [4], in experiment [5], in experiment [7] and in [8] was more than 100 µM in each case. In addition, the TGI in [9], in [10], in [20], in experiment [11], in experiment [12] and in experiment [13] was more than 100 µM each time. In addition, the TGI in experiment [14], in experiment [16], in experiment [17], in [18] and in experiment [19] was more than 100 µM throughout.

In the case of `COc1ccc(/C=C/c2sc3ccccc3[n+]2CCCCI)cc1OC`, the TGI was more than 10 µM in [1]; more than 10 µM in experiment [2]; more than 10 µM in [3]; more than 10 µM in experiment [4]; more than 10 µM in experiment [5]; 7.48 µM in experiment [6]. The TGI in experiment [7], in experiment [8], in experiment [9], in experiment [10], in experiment [20] and in [11] was more than 10 µM in each case. In addition, the TGI in experiment [12], in [14], in [15], in experiment [17], in experiment [18] and in [19] was more than 10 µM throughout.

Take `O=c1[nH]c2ccc(Cl)cc2c2oc(-c3ccccc3)nc12`: the TGI was more than 100 µM in [1]; more than 100 µM in experiment [2]; 80.7 µM in experiment [3]; 43.6 µM in [4]; 39.7 µM in experiment [7]; more than 100 µM in experiment [8]. The TGI in experiment [9] is 41.2 µM; in [10], 54.3 µM; in [20], 43.4 µM; in [11], 46.6 µM; in experiment [12], 42.3 µM; in experiment [13] it was more than 100 µM. The TGI is more than 100 µM in experiment [14]; 32.3 µM in experiment [15]; 62.3 µM in [16]; 74.9 µM in experiment [17]; 51.3 µM in experiment [18]; 32.8 µM in experiment [19].

Regarding `n1onc2c1NC1Nc3nonc3NC1N2` (centres undefined), the TGI in experiment [1], in experiment [2], in experiment [3], in experiment [4], in [5] and in [6] was more than 100 µM throughout. For the same molecule, the TGI in experiment [7], in [8], in experiment [9], in experiment [10], in experiment [20] and in [11] was more than 100 µM each time. In addition, the TGI in experiment [12], in experiment [13], in experiment [14], in experiment [15], in experiment [17] and in experiment [18] was more than 100 µM each time. Also, in experiment [19], the TGI is more than 100 µM.

Take `CN(C)c1nc2oc(-c3ccccc3)c(-c3ccccc3)c2c2nncn12`: the TGI in [1], in experiment [2], in experiment [3], in experiment [5], in experiment [7] and in experiment [8] was more than 100 µM each time. The TGI in [9], in [10], in experiment [20], in experiment [11], in experiment [12] and in experiment [13] was more than 100 µM throughout. Moreover, the TGI in [15], in [16], in experiment [17], in experiment [18] and in experiment [19] was more than 100 µM each time.

In the case of `CC(=O)N1CN2C(=O)CCC2c2ccccc21` (centres undefined), the TGI in [1], in [2], in experiment [3], in [4], in experiment [5] and in experiment [7] was more than 100 µM in each case. Besides, the TGI in experiment [8], in experiment [9], in [10], in experiment [20], in experiment [11] and in [12] was more than 100 µM in each case. Moreover, the TGI is more than 100 µM in experiment [13]; more than 100 µM in experiment [14]; more than 100 µM in [15]; 97.9 µM in [16]; more than 100 µM in [17]; more than 100 µM in [18]. The TGI in experiment [19] is more than 100 µM.
